Laboratory results published in ChEMBL document CHEMBL2021800, “Aberrant cyclization affords a C-6 modified cyclic adenosine 5'-diphosphoribose analogue with biological activity in Jurkat T cells” (J Med Chem, 2012).
The source made the active and inactive calls. The rule behind the calls is not given here.

How the values were obtained:
Type in all cases: functional, cell-based
Jurkat [1] = assay: Inhibition of N1-cIDPR-induced Ca2+ release in human Jurkat T cells using fluo-3 dye by spectrofluorometry analysis
Jurkat [2] = assay: Induction of Ca2+ release in human Jurkat T cells at 10 to 30 uM using fluo-3 dye by spectrofluorometry analysis
Jurkat [3] = assay: Induction of Ca2+ release in human Jurkat T cells at 100 to 300 uM using fluo-3 dye by spectrofluorometry analysis
Jurkat [4] = assay: Inhibition of cADPR-induced Ca2+ release in human Jurkat T cells using fluo-3 dye by spectrofluorometry analysis

O=P1(O)OC[C@H]2O[C@H]([C@H](O)[C@@H]2O)n2cnc3c(ncn3[C@@H]3O[C@H](COP(=O)(O)O1)[C@@H](O)[C@H]3O)c2=S
IC50 (Jurkat [1]): 3 µM | inhibition (Jurkat [1]): Dose-dependent effect | Activity (Jurkat [2]): inactive | Activity (Jurkat [3]): Active | IC50 (Jurkat [4]): 30 µM | inhibition (Jurkat [4]): Dose-dependent effect
